Our source for the TGI and GI50 values is PubChem BioAssay (NCI).

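Each compound was tested at five concentrations against cells in 96-well plates for 48 hours. Abbreviation: GI50, concentration required for 50% inhibition of growth. TGI: total growth inhibition.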

Test systems include A549 NSCLC; HOP-92 NSCLC; MALME-3M melanoma; NCI-H460 lung; OVCAR-3 ovarian; OVCAR-4 ovarian; OVCAR-5 ovarian; SR leukemia; T-47D breast; UACC-62 melanoma; HCT-116 colon; HL-60(TB) leukemia.
Common to all, as to assay: NCI anticancer screen, dose series, 48 h

In the case of `COC1OC2COC(c3ccccc3)OC2C(OC(=S)c2ccccc2)C1O` (stereo unspecified), the TGI with A549 NSCLC was 33.7 µM; in the experiment on HOP-92 NSCLC it was above 100 µM; in the experiment with MALME-3M melanoma, above 100 µM; in the experiment with NCI-H460 lung, above 100 µM; in the experiment on OVCAR-3 ovarian it was above 100 µM; in the experiment with OVCAR-4 ovarian, above 100 µM. The TGI in the experiment on OVCAR-5 ovarian is above 100 µM; in the experiment on SR leukemia, above 100 µM; in the experiment on T-47D breast it was 59.5 µM; in the experiment with UACC-62 melanoma, above 100 µM.
For H-KIFKKFKTIIKKVWRIFGRF-NH2, the GI50 with HCT-116 colon is 3.22 µM; in the experiment with HL-60(TB) leukemia, 5.23 µM; with HOP-92 NSCLC, 2 µM; in the experiment on OVCAR-3 ovarian, 2.14 µM; in the experiment on OVCAR-4 ovarian it was 2.13 µM; in the experiment on OVCAR-5 ovarian, 2.1 µM. Moreover, the results for the GI50 with SR leukemia and in the experiment on UACC-62 melanoma were 2.72 µM and 2.03 µM, respectively. Moreover, the TGI in the experiment with HCT-116 colon is above 100 µM; with HL-60(TB) leukemia, 57.1 µM; with HOP-92 NSCLC, 4.67 µM; in the experiment on OVCAR-3 ovarian, 5.01 µM; in the experiment on OVCAR-4 ovarian it was 5.4 µM; in the experiment with OVCAR-5 ovarian it was 4.28 µM. The TGI was above 100 µM in the experiment on SR leukemia and 4.92 µM in the experiment on UACC-62 melanoma.
